According to patent publication US12629374B2, “Antimalarial agents” (Merck Sharp & Dohme LLC, priority 2020, dated 2026):

system: ring stage parasites; test: Parasite growth potency assay, 72 hours, LDH readout; format: cell-based; conditions: 72 h, parasite growth measured by LDH assay after 72 hours at 37° C.; 0.7% rings, 2% haematocrit; read-out: EC50
Procedure, shortened: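 Parasite growth was quantified by LDH assay after a −80 °C freeze-thaw. Before that, compound was incubated for 72 h at 37 °C under humidified gas with ring-stage cultures adjusted to 0.7% parasitemia and 2% haematocrit in serum- and albumax-supplemented RPMI-Hepes.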

SMILES | EC50 [nM]
CCC1(CC)CC(=O)N([C@H](CCOC)c2cccc(C(=O)N[C@@H]3c4ccccc4C4(CC4)[C@H]3O)c2)C(=N)N1 [Example 191A, [4,4-diethyl-1-[(1R)-1-[3-[(2′-hydroxyspiro[cyclopropane-1,3′-indane]-1′-yl)carbamoyl]phenyl]-3-methoxy-propyl]-6-oxo-hexahydropyrimidin-2-ylidene]ammonium; 2,2,2-trifluoroacetate] | 0.7
CCC1(CC)CC(=O)N([C@H](CCOC)c2cccc(C(=O)N[C@H]3c4ccccc4C4(CC4)[C@@H]3O)c2)C(=N)N1 [Example 191B, [4,4-diethyl-1-[(1R)-1-[3-[(2′-hydroxyspiro[cyclopropane-1,3′-indane]-1′-yl)carbamoyl]phenyl]-3-methoxy-propyl]-6-oxo-hexahydropyrimidin-2-ylidene]ammonium; 2,2,2-trifluoroacetate] | 90.2
CCC1(CC)CC(=O)N([C@H](C)c2cccc(C(=O)N[C@@H]3c4ccccc4C[C@@]3(C)O)c2)C(=N)N1 [Example 192A, 3-[(1R)-1-(4,4-diethyl-2-imino-6-oxo-hexahydropyrimidin-1-yl)ethyl]-N-[(1R,2R)-2-hydroxy-2-methyl-indan-1-yl]benzamide] | 2.1
CCC1(CC)CC(=O)N([C@H](C)c2cccc(C(=O)N[C@@H]3c4ccccc4OC(C)(C)[C@H]3O)c2)C(=N)N1 [Example 193, [4,4-diethyl-1-[(1R)-1-[3-[[(3S,4R)-3-hydroxy-2,2-dimethyl-chroman-4-yl]carbamoyl]phenyl]ethyl]-6-oxo-hexahydropyrimidin-2-ylidene]ammonium; 2,2,2-trifluoroacetate] | 0.6
CC1(C)CC(=O)N(Cc2cccc(C(=O)N[C@@H]3c4ccccc4OC(C)(C)[C@H]3O)c2)C(=N)N1 [Example 194, [1-[[3-[[(3S,4R)-3-hydroxy-2,2-dimethyl-chroman-4-yl]carbamoyl]phenyl]methyl]-4,4-dimethyl-6-oxo-hexahydropyrimidin-2-ylidene]ammonium; 2,2,2-trifluoroacetate] | 11.6
CCC1(C)CC(=O)N([C@H](CCOC)c2cccc(C(=O)N[C@@H]3c4ccccc4C[C@H]3O)c2)C(=N)N1 (stereo partly drawn) [Example 195A, [4-ethyl-1-[(1R)-1-[3-[[(1R,2R)-2-hydroxyindan-1-yl]carbamoyl]phenyl]-3-methoxy-propyl]-4-methyl-6-oxo-hexahydropyrimidin-2-ylidene]ammonium; 2,2,2-trifluoroacetate] | 3.3
CC1(C)CC(=O)N(Cc2cccc(C(=O)N[C@H]3CC(C)(C)Oc4ccccc43)c2)C(=N)N1 [Example 198, [1-[[3-[[(4S)-2,2-dimethylchroman-4-yl]carbamoyl]phenyl]methyl]-4,4-dimethyl-6-oxo-hexahydropyrimidin-2-ylidene]ammonium; 2,2,2-trifluoroacetate] | 17
COCC[C@H](c1cccc(C(=O)N[C@@H]2c3cc(F)ccc3C[C@H]2O)c1)N1C(=N)NC(C)(C)CC1=O [Example 200, [1-[(1R)-1-[3-[(6-fluoro-2-hydroxy-indan-1-yl)carbamoyl]phenyl]-3-methoxy-propyl]-4,4-dimethyl-6-oxo-hexahydropyrimidin-2-ylidene]ammonium; 2,2,2-trifluoroacetate] | 7.1
CCC1(CC)CC(=O)N([C@H](CCOCCOCCOCCN=[N+]=[N-])c2cccc(C(=O)N[C@H]3CC(C)(C)Oc4ccccc43)c2)C(=N)N1 [Example 201, [1-[(1R)-3-[2-[2-(2-azidoethoxy)ethoxy]ethoxy]-1-[3-[[(4S)-2,2-dimethylchroman-4-yl]carbamoyl]phenyl]propyl]-4,4-diethyl-6-oxo-hexahydropyrimidin-2-ylidene]ammonium; 2,2,2-trifluoroacetate] | 1.2
CCC1(CC)CC(=O)N([C@H](CCOC)c2cccc(C(=O)N[C@@H]3c4ccccc4C[C@@H]3O)c2)C(=N)N1 [Example 202, [4,4-diethyl-1-[(1R)-1-[3-[[(1R,2S)-2-hydroxyindan-1-yl]carbamoyl]phenyl]-3-methoxy-propyl]-6-oxo-hexahydropyrimidin-2-ylidene]ammonium; 2,2,2-trifluoroacetate] | 5.3
CCC1(CC)CC(=O)N([C@H](CCOC)c2cccc(C(=O)N[C@@H]3c4ccccc4OC(C)(C)C3(C)O)c2)C(=N)N1 (stereo partly drawn) [Example 203, 3-[(1R)-1-(4,4-diethyl-2-imino-6-oxo-hexahydropyrimidin-1-yl)-3-methoxy-propyl]-N-(3-hydroxy-2,2,3-trimethyl-chroman-4-yl)benzamide] | 0.3
CCC1(CC)CC(=O)N([C@H](C)c2cccc(C(=O)N[C@@H]3c4ccccc4OC[C@@]3(C)O)c2)C(=N)N1 [Example 205A, [4,4-diethyl-1-[(1R)-1-[3-[[(3S,4R)-3-hydroxy-3-methyl-chroman-4-yl]carbamoyl]phenyl]ethyl]-6-oxo-hexahydropyrimidin-2-ylidene]ammonium; 2,2,2-trifluoroacetate] | 1.1
CC[C@H](c1cccc(C(=O)N[C@@H]2c3ccccc3OC[C@@]2(C)O)c1)N1C(=N)NC(CC)(CC)CC1=O [Example 206A, 3-[1-(4,4-diethyl-2-imino-6-oxo-hexahydropyrimidin-1-yl)propyl]-N-[(3S,4R)-3-hydroxy-3-methyl-chroman-4-yl]benzamide] | 1
CC[C@H](c1cccc(C(=O)N[C@@H]2c3ccccc3OC(C)(C)[C@H]2O)c1)N1C(=N)NC(CC)(CC)CC1=O [Example 207A, [4,4-diethyl-1-[1-[3-[[(3S,4R)-3-hydroxy-2,2-dimethyl-chroman-4-yl]carbamoyl]phenyl]propyl]-6-oxo-hexahydropyrimidin-2-ylidene]ammonium; 2,2,2-trifluoroacetate] | 0.3
CC[C@@H](c1cccc(C(=O)N[C@@H]2c3ccccc3OC(C)(C)[C@H]2O)c1)N1C(=N)NC(CC)(CC)CC1=O [Example 207B, [4,4-diethyl-1-[1-[3-[[(3S,4R)-3-hydroxy-2,2-dimethyl-chroman-4-yl]carbamoyl]phenyl]propyl]-6-oxo-hexahydropyrimidin-2-ylidene]ammonium; 2,2,2-trifluoroacetate] | 72
CC[C@H](c1cccc(C(=O)N[C@@H]2c3ccccc3C[C@H]2O)c1)N1C(=N)NC(CC)(CC)CC1=O [Example 208, [4,4-diethyl-1-[1-[3-[[(1R,2R)-2-hydroxyindan-1-yl]carbamoyl]phenyl]propyl]-6-oxo-hexahydropyrimidin-2-ylidene]ammonium; 2,2,2-trifluoroacetate] | 0.7

same assay, conditions: parasite growth measured by LDH assay after 72 hours at 37° C.; 0.7% rings, 2% haematocrit; read-out: EC50

SMILES | EC50 [nM]
CCC1(CC)CC(=O)N([C@H](CCOC)c2cccc(C(=O)NC3c4ccccc4C(F)(F)C3O)c2)C(=N)N1 (stereo partly drawn) [Example 189B, [1-[(1R)-1-[3-[(3,3-difluoro-2-hydroxy-indan-1-yl)carbamoyl]phenyl]-3-methoxy-propyl]-4,4-diethyl-6-oxo-hexahydropyrimidin-2-ylidene]ammonium; chloride] | 292
CCC1(CC)CC(=O)N([C@H](C)c2cccc(C(=O)N[C@@H]3c4ccccc4C[C@]3(C)O)c2)C(=N)N1 [Example 192B, 3-[(1R)-1-(4,4-diethyl-2-imino-6-oxo-hexahydropyrimidin-1-yl)ethyl]-N-[(1R,2S)-2-hydroxy-2-methyl-indan-1-yl]benzamide] | 2.7
CCC1(C)CC(=O)N([C@H](CCOC)c2cccc(C(=O)N[C@@H]3c4ccccc4CC3(C)O)c2)C(=N)N1 (stereo partly drawn) [Example 196A, 3-[(1R)-1-(4-ethyl-2-imino-4-methyl-6-oxo-hexahydropyrimidin-1-yl)-3-methoxy-propyl]-N-[(1R,2S)-2-hydroxy-2-methyl-indan-1-yl]benzamide] | 6.5
CCC1(C)CC(=O)N([C@H](CCOC)c2cccc(C(=O)N[C@@H]3c4ccccc4CC3(C)O)c2)C(=N)N1 (stereo partly drawn) [Example 196B, 3-[(1R)-1-(4-ethyl-2-imino-4-methyl-6-oxo-hexahydropyrimidin-1-yl)-3-methoxy-propyl]-N-[(1R,2S)-2-hydroxy-2-methyl-indan-1-yl]benzamide] | 3.1
CCC1(C)CC(=O)N([C@H](CCOC)c2cccc(C(=O)N[C@@H]3c4ccccc4C[C@@]3(C)O)c2)C(=N)N1 (stereo partly drawn) [Example 196C, 3-[(1R)-1-(4-ethyl-2-imino-4-methyl-6-oxo-hexahydropyrimidin-1-yl)-3-methoxy-propyl]-N-[(1R,2R)-2-hydroxy-2-methyl-indan-1-yl]benzamide] | 7.4
CCC1(C)CC(=O)N([C@H](CCOC)c2cccc(C(=O)N[C@@H]3c4ccccc4CC3(C)O)c2)C(=N)N1 (stereo partly drawn) [Example 196D, 3-[(1R)-1-(4-ethyl-2-imino-4-methyl-6-oxo-hexahydropyrimidin-l-yl)-3-methoxy-propyl]-N-[(1R,2R)-2-hydroxy-2-methyl-indan-1-yl]benzamide] | 6.8

same assay, conditions: parasite growth measured by LDH assay after 72 hours at 37° C.; 0.7% rings, 2% haematocrit; trifluoroacetate; read-out: EC50

SMILES | EC50 [nM]
CCC1(C)CC(=O)N([C@H](CCOC)c2cccc(C(=O)N[C@@H]3c4ccccc4C[C@H]3O)c2)C(=N)N1 (stereo partly drawn) [Example 195B, [4-ethyl-1-[(1R)-1-[3-[[(1R,2R)-2-hydroxyindan-1-yl]carbamoyl]phenyl]-3-methoxy-propyl]-4-methyl-6-oxo-hexahydropyrimidin-2-ylidene]ammonium; 2,2,2-trifluoroacetate] | 2.7
CCC1(CC)CC(=O)N([C@H](C)c2cccc(C(=O)N[C@@H]3c4ccccc4OC[C@]3(C)O)c2)C(=N)N1 [Example 205B, [4,4-diethyl-1-[(1R)-1-[3-[[(3R,4R)-3-hydroxy-3-methyl-chroman-4-yl]carbamoyl]phenyl]ethyl]-6-oxo-hexahydropyrimidin-2-ylidene]ammonium; 2,2,2-trifluoroacetate] | 1.9
CC[C@H](c1cccc(C(=O)N[C@@H]2c3ccccc3OC[C@]2(C)O)c1)N1C(=N)NC(CC)(CC)CC1=O [Example 206B, [4,4-diethyl-1-[1-[3-[[(3R,4R)-3-hydroxy-3-methyl-chroman-4-yl]carbamoyl]phenyl]propyl]-6-oxo-hexahydropyrimidin-2-ylidene]ammonium; 2,2,2-trifluoroacetate] | 0.7
